Source: patent US7943628B2, “Pyrimidine derivatives” (Pfizer Limited, priority 2005, dated 2011)

Biological target: T1, histamine H4 receptor (Homo sapiens, UniProt Q9H3N8)
T1 construct: expressed in transfected cells; host or cells: CHO cells
Experiment: H4 binding, method 1 ([3H]-histamine filtration binding on CHO cell membranes)
Settings: for Ki: H4 binding, method 1, Ki calculated from IC50 (Cheng-Prussoff)
Procedure: Cell pellets from CHO cells expressing the histamine H4 receptor were homogenised in ice-cold 50 mM Tris-HCl/0.5 mM CaCl2 buffer containing a protease inhibitor cocktail (Roche®, United Kingdom) using a ground glass homogeniser. Homogenates were centrifuged at 48000 g for 30 min at 4° C. The membrane pellet was resuspended in fresh buffer and the centrifugation step was repeated as described above. The membrane pellet was resuspended in 50 mM Tris-HCl in the same volume as the original cell pellet. Aliquots of membrane preparations were stored at −80° C. and were used for [^3H]-Histamine binding experiments.
Cell membranes (20-35 μg/well) were incubated for 90 minutes shaking at room temperature with 3 nM [2,5-^3H]Histamine dihydrochloride (30-60 Ci/mmol) in 50 mM Tris-HCl (pH 7.4), with or without competing H4 ligands. The reaction was terminated by rapid filtration through 0.5% polyethylenimine-soaked Unifilter GF/B plates (Packard) followed by three washes with 1 ml ice-cold 50 mM Tris-HCl. Filters were dried for 45 min at 45° C. and bound radiolabel was determined using scintillation counting techniques. Non-specific binding was defined with 10 μM JNJ7777120.

SMILES | Ki [nM] | inhibition at 10 µM (1.5 h) [%]
CC(C)Nc1cc(N2CC[C@@H]3NCC[C@@H]3C2)nc(N)n1 (racemic) [Example 137, N^4-Isopropyl-6-[(3aR*,7aS*)-octahydro-5H-pyrrolo[3,2-c]pyridin-5-yl]pyrimidine-2,4-diamine] | 8.25 | 
CC(C)(C)CNc1cc(N2CC[C@@H]3NCC[C@@H]3C2)nc(N)n1 (racemic) [Example 162, N^4-(2,2-Dimethylpropyl)-6-[(3aR*,7aS*)-octahydro-5H-pyrrolo[3,2-c]pyridin-5-yl]pyrimidine-2,4-diamine] | 2.91 | 
Nc1nc(NCC2CC2)cc(N2CC[C@@H]3NCC[C@@H]3C2)n1 (racemic) [Example 188, N^4-(Cyclopropylmethyl)-6-[(3aR*,7aS*)-octahydro-5H-pyrrolo[3,2-c]pyridin-5-yl]pyrimidine-2,4-diamine] | 25.5 | 
CCNc1cc(N2CC[C@@H]3NCC[C@@H]3C2)nc(N)n1 (racemic) [Example 193, N^4-Ethyl-6-[(3aR*,7aS*)-octahydro-5H-pyrrolo[3,2-c]pyridin-5-yl]pyrimidine-2,4-diamine] | 31 | 
CNc1cc(N2CC[C@@H]3NCC[C@@H]3C2)nc(N)n1 (racemic) [Example 200, N^4Methyl-6-[(3aR*,7aS*)-octahydro-5H-pyrrolo[3,2-c]pyridin-5-yl]pyrimidine-2,4-diamine] | 34 | 
CC(C)(C)Nc1cc(N2C[C@@H]3CCCN[C@@H]3C2)nc(N)n1 (relative stereo) [Example 150, N^4-(tert-Butyl)-6-[(4aS*,7aS*)-octahydro-6H-pyrrolo[3,4-b]pyridin-6-yl]pyrimidine-2,4-diamine] | 11.8 | 
CN(C)[C@H]1CCN(c2cc(NCCC(C)(C)C)ncn2)C1 [Example 2, 6-[(3S)-3-(Dimethylamino)pyrrolidin-1-yl]-N-(3,3-dimethylbutyl)pyrimidin-4-amine] | 485 | 
CN1C[C@@H]2CN(c3cc(NCCC(C)(C)C)ncn3)C[C@@H]2C1 [Example 3, N-(3,3-Dimethylbutyl)-6-[(3aR*,6aS*)-5-methylhexahydropyrrolo[3,4-c]pyrrol-2(1H)-yl]pyrimidin-4-amine] | 220 | 
CN(C)C1CN(c2cc(NCCC(C)(C)C)ncn2)C1 [Example 4, 6-[3-(Dimethylamino)azetidin-1-yl]-N-(3,3-dimethylbutyl)pyrimidin-4-amine] | 374 | 
CN1C[C@@H]2C[C@H]1CN2c1cc(NCCC(C)(C)C)ncn1 [Example 5, N-(3,3-Dimethylbutyl)-6-[(1S,4S)-5-methyl-2,5-diazabicyclo[2.2.1]hept-2-yl]pyrimidin-4-amine] | 263 | 
CC(C)(C)CCNc1cc(N[C@H]2CCNC2)ncn1 [Example 6, N-(3,3-Dimethylbutyl)-N′-[(3S)-pyrrolidin-3-yl]pyrimidine-4,6-diamine] | 502 | 
CC(C)(C)CCNc1cc(N[C@@H]2CCNC2)ncn1 [Example 7, N-(3.3-Dimethylbutyl)-N′-[(3R)-pyrrolidin-3-yl]pyrimidine-4,6-diamine] | 939 | 
CN1CC[C@@H](Nc2cc(NCCC(C)(C)C)ncn2)C1 [Example 8, N-(3,3-Dimethylbutyl)-N′-[(3R)-1-methylpyrrolidin-3-yl]pyrimidine-4,6-diamine] | 593 | 
CCNc1cc(N2CC(NC)C2)nc(N)n1 [Example 70, N^4-Ethyl-6-[3-(methylamino)azetidin-1-yl]pyrimidine-2,4-diamine] | 3.79 | 
CCCNc1cc(N2CC(NC)C2)nc(N)n1 [Example 73, 6-[3-(Methylamino)azetidin-1-yl]-N^4-propylpyrimidine-2,4-diamine] | 0.88 | 
CNC1CN(c2cc(NC3CCC3)nc(N)n2)C1 [Example 75, N^4-Cyclobutyl-6-[3-(methylamino)azetidin-1-yl]pyrimidine-2,4-diamine] | 1.07 | 
CC(C)CCNc1cc(N2CCN(C)CC2)ncn1 [Example 100, N-(3-Methylbutyl)-6-(4-methylpiperazin-1-yl)pyrimidin-4-amine] | 40.2 | 
CCNc1cc(N2CCN(C)CC2)ncn1 [Example 103, N-Ethyl-6-(4-methylpiperazin-1-yl)pyrimidin-4-amine] | 87.9 | 
CC(C)Nc1cc(N2CCN(C)CC2)ncn1 [Example 104, N-Isopropyl-6-(4-methylpiperazin-1-yl)pyrimidin-4-amine] | 118 | 
CC(C)CNc1cc(N2CCN(C)CC2)ncn1 [Example 105, N-Isobutyl-6-(4-methylpiperazin-1-yl)pyrimidin-4-amine] | 68.8 | 
CN1CCN(c2cc(NCC3CC3)ncn2)CC1 [Example 106, N-(Cyclopropylmethyl)-6-(4-methylpiperazin-1-yl)pyrimidin-4-amine] | 66.1 | 

More lines, now with the values ahead:

Ki [nM] | inhibition at 10 µM (1.5 h) [%] | SMILES
 | 19 | N[C@@]12C[C@@H]1CN(c1cc(NCC3CC3)ncn1)C2 (relative stereo) [Example 304, (1S*,5R*)-3-{6-[(Cyclopropylmethyl)amino]pyrimidin-4-yl}-3-azabicyclo[3.1.0]hexan-1-amine]
463 |  | CC(C)(C)CCNc1cc(N[C@H]2CCNC2)nc(N)n1 [Example 101, N^4-(3,3-Dimethylbutyl)-N^6-[(3S)-pyrrolidin-3-yl]pyrimidine-2,4,6-triamine]
57.3 |  | CN1CCN(c2cc(NCCC(C)(C)C)nc(N)n2)CC1 [Example 102, N^4-(3,3-Dimethylbutyl)-6-(4-methylpiperazin-1-yl)pyrimidine-2,4-diamine]
271 |  | CC(C)CCNc1cc(N[C@H]2CCNC2)ncn1 [Example 107]
0.805 |  | CCC(C)CNc1cc(N2CC(NC)C2)nc(N)n1 (centres unmarked) [Example 128, 6-[3-(Methylamino)azetidin-1-yl]-N^4-(2-methylbutyl)pyrimidine-2,4-diamine]
3.78 |  | CNC1CN(c2cc(N[C@@H](C)C(C)C)nc(N)n2)C1 [Example 129, N^4-[(1S)-1,2-Dimethylpropyl]-6-[3-(methylamino)azetidin-1-yl]pyrimidine-2,4-diamine]
9.69 |  | CNC1CN(c2cc(NCc3cc(F)ccc3F)nc(N)n2)C1 [Example 130, N^4-(2,5-Difluorobenzyl)-6-[3-(methylamino)azetidin-1-yl]pyrimidine-2,4-diamine]
17.8 |  | CNC1CN(c2cc(NCc3cccc(F)c3F)nc(N)n2)C1 [Example 131, N^4-(2,3-Difluorobenzyl)-6-[3-(methylamino)azetidin-1-yl]pyrimidine-2,4-diamine]
0.791 |  | CCCCNc1cc(N2CC(NC)C2)nc(N)n1 [Example 132, N^4-Butyl-6-[3-(methylamino)azetidin-1-yl]pyrimidine-2,4-diamine]
0.653 |  | CC(C)CNc1cc(N2CCCNCC2)nc(N)n1 [Example 133, 6-(1,4-Diazepan-1-yl)-N^4-isobutylpyrimidine-2,4-diamine]
4.15 |  | CN[C@@H]1CCN(c2cc(NC3CC3C)nc(N)n2)C1 (stereo partly drawn) [Example 134, 6-[(3R)-3-(Methylamino)pyrrolidin-1-yl]-N^4-(2-methylcyclopropyl)pyrimidine-2,4-diamine]
1.13 |  | CC(C)CNc1cc(N2CCCN(C)CC2)nc(N)n1 [Example 135, N^4-Isobutyl-6-(4-methyl-1,4-diazepan-1-yl)pyrimidine-2,4-diamine]
7.21 |  | Nc1nc(NCC2CC2)cc(N2CC(N3CCCC3)C2)n1 [Example 136, N^4-(Cyclopropylmethyl)-6-(3-pyrrolidin-1-ylazetidin-1-yl)pyrimidine-2,4-diamine]
5.8 |  | CN[C@@H]1CCN(c2cc(NC34CC(C3)C4)nc(N)n2)C1 [Example 138, N^4-Bicyclo[1.1.1]pent-1-yl-6-[(3R)-3-(methylamino)pyrrolidin-1-yl]pyrimidine-2,4-diamine]
12.1 |  | CCNc1cc(N2CCC(N)CC2)nc(N)n1 [Example 139, 6-(4-Aminopiperidin-1-yl)-N^4-ethylpyrimidine-2,4-diamine]
12.1 |  | CCCNc1cc(N2CC(C)(NC)C2)nc(N)n1 [Example 140, 6-[3-Methyl-3-(methylamino)azetidin-1-yl]-N^4-propylpyrimidine-2,4-diamine]
3.04 |  | CC(C)(C)CNc1cc(N2CC(N3CCCC3)C2)nc(N)n1 [Example 142, N^4-(2,2-Dimethylpropyl)-6-(3-pyrrolidin-1-ylazetidin-1-yl)pyrimidine-2,4-diamine]
72.4 |  | CNCCNc1cc(NCC(C)(C)C)nc(N)n1 [Example 143, N^4-(2,2-Dimethylpropyl)-N^6-[2-(methylamino)ethyl]pyrimidine-2,4,6-triamine]
16.8 |  | CN(C)CCNc1cc(NCC(C)(C)C)nc(N)n1 [Example 144, N^4-[2-(Dimethylamino)ethyl]-N^6-(2,2-dimethylpropyl)pyrimidine-2,4,6-triamine]
14.3 |  | CC(C)NC1CN(c2cc(NCC(C)(C)C)nc(N)n2)C1 [Example 145, N^4-(2,2-Dimethylpropyl)-6-[3-(isopropylamino)azetidin-1-yl]pyrimidine-2,4-diamine]
13.7 |  | CC[C@@H](C)Nc1cc(N2CC[C@@H](NC)C2)ncn1 [Example 146, 6-[(3R)-3-(Methylamino)pyrrolidin-1-yl]-N-[(1R)-1-methylpropyl]pyrimidin-4-amine]
17.3 |  | CCCCNc1cc(N2CC[C@@H](NC)C2)ncn1 [Example 147, N-Butyl-6-[(3R)-3-(methylamino)pyrrolidin-1-yl]pyrimidin-4-amine]
4.89 |  | CN[C@@H]1CCN(c2cc(NC(C)(C)C)nc(N)n2)C1 [Example 148, N^4-(tert-Butyl)-6-[(3R)-3-(methylamino)pyrrolidin-1-yl]pyrimidine-2,4-diamine]
